Data taken from PMC9019041, “Structural insights into the peptide selectivity and activation of human neuromedin U receptors” (Nature Communications, 2022).
Where no end group is shown, it is not given here.

What was measured:
Type in all cases: cell-based
Details in all cases: mean ± S.E.M., three independent experiments (n=3), SEM, read-out: IP1 accumulation pEC50 ± S.E.M. (converted)
NMUR2 E102A = target: T1, NMUR2 E102A (Homo sapiens, UniProt Q9GZQ4, E102A); test: IP-One assay, NMUR2 E102A
T1 construct: expressed in transfected cells; host or cells: AD293 cells
T1 sequence (Q9GZQ4 whole entry E102A): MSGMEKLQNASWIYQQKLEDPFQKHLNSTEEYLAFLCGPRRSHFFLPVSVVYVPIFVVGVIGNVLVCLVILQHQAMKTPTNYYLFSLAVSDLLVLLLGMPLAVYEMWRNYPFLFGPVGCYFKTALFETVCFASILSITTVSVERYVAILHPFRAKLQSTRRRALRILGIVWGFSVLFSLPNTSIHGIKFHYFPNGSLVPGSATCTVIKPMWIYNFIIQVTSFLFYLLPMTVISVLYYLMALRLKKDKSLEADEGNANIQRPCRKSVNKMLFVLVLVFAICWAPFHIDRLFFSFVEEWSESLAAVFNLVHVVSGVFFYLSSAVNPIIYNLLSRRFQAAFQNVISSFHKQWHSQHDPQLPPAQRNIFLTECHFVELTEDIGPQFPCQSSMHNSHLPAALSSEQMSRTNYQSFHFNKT
Protocol: (§1) IP-One production was measured using the IP-One HTRF kit (Cisbio)[62]. Briefly, AD293 cells (Agilent) were grown to a density of 400,000–500,000 cells per mL and then infected with separate plasmids at a suitable concentration. The culture was collected by centrifugation 24 h after incubation at 37 °C in 5% CO2 with a Stimulation Buffer. The cell suspension was then dispensed in a white 384-well plate at a volume of 7 μl per well before adding 7 μl of ligands. The mixture was incubated for 1 h at 37 °C. IP-One-d2 and anti-IP-One Cryptate dissolved in Lysis Buffer (3 μl each) were subsequently added and incubated for 15-30 min at room temperature before measurement. Intracellular IP-One measurement was carried with the IP-One HTRF kit and EnVision multi-plate reader (PerkinElmer) according to the manufacturer’s instructions. Data were normalized to the baseline response of the ligand.
(§2) The significance was determined with two-side, one-way ANOVA with Tukey’s test, and ^*P < 0.05 was considered statistically significant.

NMUR2 E105A = target: T2, NMUR2 E105A (Homo sapiens, UniProt Q9GZQ4, E105A); test: IP-One assay, NMUR2 E105A
T2 construct: expressed in transfected cells; host or cells: AD293 cells
T2 sequence (Q9GZQ4 whole entry E105A): as the sequence (Q9GZQ4 whole entry E102A) above, with A102E, E105A counted along it
Protocol: as §1, §2

NMUR2 M106A = target: T3, NMUR2 M106A (Homo sapiens, UniProt Q9GZQ4, M106A); test: IP-One assay, NMUR2 M106A
T3 construct: expressed in transfected cells; host or cells: AD293 cells
T3 sequence (Q9GZQ4 whole entry M106A): as the sequence (Q9GZQ4 whole entry E102A) above, with A102E, M106A counted along it
Protocol: as §1, §2

NMUR2 N109A = target: T4, NMUR2 N109A (Homo sapiens, UniProt Q9GZQ4, N109A); test: IP-One assay, NMUR2 N109A
T4 construct: expressed in transfected cells; host or cells: AD293 cells
T4 sequence (Q9GZQ4 whole entry N109A): as the sequence (Q9GZQ4 whole entry E102A) above, with A102E, N109A counted along it
Protocol: as §1, §2

NMUR2 Y110A = target: T5, NMUR2 Y110A (Homo sapiens, UniProt Q9GZQ4, Y110A); test: IP-One assay, NMUR2 Y110A
T5 construct: expressed in transfected cells; host or cells: AD293 cells
T5 sequence (Q9GZQ4 whole entry Y110A): as the sequence (Q9GZQ4 whole entry E102A) above, with A102E, Y110A counted along it
Protocol: as §1, §2

NMUR2 K122A = target: T6, NMUR2 K122A (Homo sapiens, UniProt Q9GZQ4, K122A); test: IP-One assay, NMUR2 K122A
T6 construct: expressed in transfected cells; host or cells: AD293 cells
T6 sequence (Q9GZQ4 whole entry K122A): as the sequence (Q9GZQ4 whole entry E102A) above, with A102E, K122A counted along it
Protocol: as §1, §2

NMUR2 T123A = target: T7, NMUR2 T123A (Homo sapiens, UniProt Q9GZQ4, T123A); test: IP-One assay, NMUR2 T123A
T7 construct: expressed in transfected cells; host or cells: AD293 cells
T7 sequence (Q9GZQ4 whole entry T123A): as the sequence (Q9GZQ4 whole entry E102A) above, with A102E, T123A counted along it
Protocol: as §1, §2

NMUR2 F126A = target: T8, NMUR2 F126A (Homo sapiens, UniProt Q9GZQ4, F126A); test: IP-One assay, NMUR2 F126A
T8 construct: expressed in transfected cells; host or cells: AD293 cells
T8 sequence (Q9GZQ4 whole entry F126A): as the sequence (Q9GZQ4 whole entry E102A) above, with A102E, F126A counted along it
Protocol: as §1, §2

NMUR2 E127A = target: T9, NMUR2 E127A (Homo sapiens, UniProt Q9GZQ4, E127A); test: IP-One assay, NMUR2 E127A
T9 construct: expressed in transfected cells; host or cells: AD293 cells
T9 sequence (Q9GZQ4 whole entry E127A): as the sequence (Q9GZQ4 whole entry E102A) above, with A102E, E127A counted along it
Protocol: as §1, §2

NMUR2 N181A = target: T10, NMUR2 N181A (Homo sapiens, UniProt Q9GZQ4, N181A); test: IP-One assay, NMUR2 N181A
T10 construct: expressed in transfected cells; host or cells: AD293 cells
T10 sequence (Q9GZQ4 whole entry N181A): as the sequence (Q9GZQ4 whole entry E102A) above, with A102E, N181A counted along it
Protocol: as §1, §2

NMUR2 T203A = target: T11, NMUR2 T203A (Homo sapiens, UniProt Q9GZQ4, T203A); test: IP-One assay, NMUR2 T203A
T11 construct: expressed in transfected cells; host or cells: AD293 cells
T11 sequence (Q9GZQ4 whole entry T203A): as the sequence (Q9GZQ4 whole entry E102A) above, with A102E, T203A counted along it
Protocol: as §1, §2

NMUR2 T205A = target: T12, NMUR2 T205A (Homo sapiens, UniProt Q9GZQ4, T205A); test: IP-One assay, NMUR2 T205A
T12 construct: expressed in transfected cells; host or cells: AD293 cells
T12 sequence (Q9GZQ4 whole entry T205A): as the sequence (Q9GZQ4 whole entry E102A) above, with A102E, T205A counted along it
Protocol: as §1, §2

NMUR2 Y213A = target: T13, NMUR2 Y213A (Homo sapiens, UniProt Q9GZQ4, Y213A); test: IP-One assay, NMUR2 Y213A
T13 construct: expressed in transfected cells; host or cells: AD293 cells
T13 sequence (Q9GZQ4 whole entry Y213A): as the sequence (Q9GZQ4 whole entry E102A) above, with A102E, Y213A counted along it
Protocol: as §1, §2

NMUR2 F284A = target: T14, NMUR2 F284A (Homo sapiens, UniProt Q9GZQ4, F284A); test: IP-One assay, NMUR2 F284A
T14 construct: expressed in transfected cells; host or cells: AD293 cells
T14 sequence (Q9GZQ4 whole entry F284A): as the sequence (Q9GZQ4 whole entry E102A) above, with A102E, F284A counted along it
Protocol: as §1, §2

NMUR2 D287A = target: T15, NMUR2 D287A (Homo sapiens, UniProt Q9GZQ4, D287A); test: IP-One assay, NMUR2 D287A
T15 construct: expressed in transfected cells; host or cells: AD293 cells
T15 sequence (Q9GZQ4 whole entry D287A): as the sequence (Q9GZQ4 whole entry E102A) above, with A102E, D287A counted along it
Protocol: as §1, §2

NMUR2 R288A = target: T16, NMUR2 R288A (Homo sapiens, UniProt Q9GZQ4, R288A); test: IP-One assay, NMUR2 R288A
T16 construct: expressed in transfected cells; host or cells: AD293 cells
T16 sequence (Q9GZQ4 whole entry R288A): as the sequence (Q9GZQ4 whole entry E102A) above, with A102E, R288A counted along it
Protocol: as §1, §2

NMUR2 F291A = target: T17, NMUR2 F291A (Homo sapiens, UniProt Q9GZQ4, F291A); test: IP-One assay, NMUR2 F291A
T17 construct: expressed in transfected cells; host or cells: AD293 cells
T17 sequence (Q9GZQ4 whole entry F291A): as the sequence (Q9GZQ4 whole entry E102A) above, with A102E, F291A counted along it
Protocol: as §1, §2

NMUR2 W297A = target: T18, NMUR2 W297A (Homo sapiens, UniProt Q9GZQ4, W297A); test: IP-One assay, NMUR2 W297A
T18 construct: expressed in transfected cells; host or cells: AD293 cells
T18 sequence (Q9GZQ4 whole entry W297A): as the sequence (Q9GZQ4 whole entry E102A) above, with A102E, W297A counted along it
Protocol: as §1, §2

NMUR2 A302G = target: T19, NMUR2 A302G (Homo sapiens, UniProt Q9GZQ4, A302G); test: IP-One assay, NMUR2 A302G
T19 construct: expressed in transfected cells; host or cells: AD293 cells
T19 sequence (Q9GZQ4 whole entry A302G): as the sequence (Q9GZQ4 whole entry E102A) above, with A102E, A302G counted along it
Protocol: as §1, §2

NMUR2 F305A = target: T20, NMUR2 F305A (Homo sapiens, UniProt Q9GZQ4, F305A); test: IP-One assay, NMUR2 F305A
T20 construct: expressed in transfected cells; host or cells: AD293 cells
T20 sequence (Q9GZQ4 whole entry F305A): as the sequence (Q9GZQ4 whole entry E102A) above, with A102E, F305A counted along it
Protocol: as §1, §2

NMUR2 N306A = target: T21, NMUR2 N306A (Homo sapiens, UniProt Q9GZQ4, N306A); test: IP-One assay, NMUR2 N306A
T21 construct: expressed in transfected cells; host or cells: AD293 cells
T21 sequence (Q9GZQ4 whole entry N306A): as the sequence (Q9GZQ4 whole entry E102A) above, with A102E, N306A counted along it
Protocol: as §1, §2

NMUR2 H309A = target: T22, NMUR2 H309A (Homo sapiens, UniProt Q9GZQ4, H309A); test: IP-One assay, NMUR2 H309A
T22 construct: expressed in transfected cells; host or cells: AD293 cells
T22 sequence (Q9GZQ4 whole entry H309A): as the sequence (Q9GZQ4 whole entry E102A) above, with A102E, H309A counted along it
Protocol: as §1, §2

NMUR2 V310A = target: T23, NMUR2 V310A (Homo sapiens, UniProt Q9GZQ4, V310A); test: IP-One assay, NMUR2 V310A
T23 construct: expressed in transfected cells; host or cells: AD293 cells
T23 sequence (Q9GZQ4 whole entry V310A): as the sequence (Q9GZQ4 whole entry E102A) above, with A102E, V310A counted along it
Protocol: as §1, §2

NMUR2 S312A = target: T24, NMUR2 S312A (Homo sapiens, UniProt Q9GZQ4, S312A); test: IP-One assay, NMUR2 S312A
T24 construct: expressed in transfected cells; host or cells: AD293 cells
T24 sequence (Q9GZQ4 whole entry S312A): as the sequence (Q9GZQ4 whole entry E102A) above, with A102E, S312A counted along it
Protocol: as §1, §2

NMUR2 F316A = target: T25, NMUR2 F316A (Homo sapiens, UniProt Q9GZQ4, F316A); test: IP-One assay, NMUR2 F316A
T25 construct: expressed in transfected cells; host or cells: AD293 cells (Agilent)
T25 sequence (Q9GZQ4 whole entry F316A): as the sequence (Q9GZQ4 whole entry E102A) above, with A102E, F316A counted along it
Protocol: as §1, §2

NMUR2 Y317A = target: T26, NMUR2 Y317A (Homo sapiens, UniProt Q9GZQ4, Y317A); test: IP-One assay, NMUR2 Y317A
T26 construct: expressed in transfected cells; host or cells: AD293 cells (Agilent)
T26 sequence (Q9GZQ4 whole entry Y317A): as the sequence (Q9GZQ4 whole entry E102A) above, with A102E, Y317A counted along it
Protocol: as §1, §2

EC50 (NMUR2 E102A): 30.9 nM | EC50 (NMUR2 E105A): 11.7 nM | EC50 (NMUR2 M106A): 19.5 nM | EC50 (NMUR2 N109A): 7.24 nM | EC50 (NMUR2 Y110A): 186 nM | EC50 (NMUR2 K122A): 61.7 nM | EC50 (NMUR2 T123A): 9.77 nM | EC50 (NMUR2 F126A): 2 nM | EC50 (NMUR2 E127A): 43.7 nM | EC50 (NMUR2 N181A): 2.75 nM | EC50 (NMUR2 T203A): 0.891 nM | EC50 (NMUR2 T205A): 1.95 nM | EC50 (NMUR2 Y213A): 7.24 nM | EC50 (NMUR2 F284A): 7.08 nM | EC50 (NMUR2 D287A): 1.15 nM | EC50 (NMUR2 R288A): 33.1 nM | EC50 (NMUR2 F291A): 4.68 nM | EC50 (NMUR2 W297A): 66.1 nM | EC50 (NMUR2 A302G): 70.8 nM | EC50 (NMUR2 F305A): 12.3 nM | EC50 (NMUR2 N306A): 10 nM | EC50 (NMUR2 H309A): 0.646 nM | EC50 (NMUR2 V310A): 0.631 nM | EC50 (NMUR2 S312A): 2.45 nM | EC50 (NMUR2 F316A): 8.71 nM | EC50 (NMUR2 Y317A): 2.63 nM
Substance: FRVDEEFQSPFASQSRGYFLFRPRN-NH2 [NMU, neuromedin U]
